Assay [1] relates to ACh+PNU-responsive mouse DRG neurons (α7 nAChR). Type of assay: cell-based.
The subject of assay [2] is α7 nAChR. The conditions noted are these: cited from earlier work.
For assay [3], the target named is mouse α6/α3β4 nAChR (Mus musculus, UniProt Q8R493+Q8R4G9+Q9R0W9). Type of assay: cell-based.
For assay [4], the system named is mouse DRG neurons. The settings on record: cited from earlier work.

Where a SMILES comes first, the peptide text is derived from it. Bridges are numbered along the chain shown (N, C = ends). [ ]: non-standard residue; d: D form. pGlu = O=C1CC[C@@H](C(=O)O)N1

mouse α6/α3β4 nAChR, sequence (Q8R493 whole entry, looked up): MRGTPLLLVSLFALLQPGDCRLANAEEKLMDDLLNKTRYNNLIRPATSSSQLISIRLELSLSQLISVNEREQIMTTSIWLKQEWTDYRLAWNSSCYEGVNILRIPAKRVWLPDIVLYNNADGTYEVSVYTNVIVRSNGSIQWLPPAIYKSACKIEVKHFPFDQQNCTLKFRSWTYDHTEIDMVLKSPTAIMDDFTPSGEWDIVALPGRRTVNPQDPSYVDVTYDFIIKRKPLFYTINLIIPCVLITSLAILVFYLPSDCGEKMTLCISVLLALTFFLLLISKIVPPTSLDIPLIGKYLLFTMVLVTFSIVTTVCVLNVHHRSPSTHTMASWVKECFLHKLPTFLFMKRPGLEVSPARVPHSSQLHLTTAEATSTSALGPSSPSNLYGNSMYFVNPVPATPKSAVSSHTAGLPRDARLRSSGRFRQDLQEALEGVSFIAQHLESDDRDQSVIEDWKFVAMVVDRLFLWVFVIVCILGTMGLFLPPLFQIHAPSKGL
mouse α6/α3β4 nAChR, sequence (Q8R4G9 whole entry, looked up): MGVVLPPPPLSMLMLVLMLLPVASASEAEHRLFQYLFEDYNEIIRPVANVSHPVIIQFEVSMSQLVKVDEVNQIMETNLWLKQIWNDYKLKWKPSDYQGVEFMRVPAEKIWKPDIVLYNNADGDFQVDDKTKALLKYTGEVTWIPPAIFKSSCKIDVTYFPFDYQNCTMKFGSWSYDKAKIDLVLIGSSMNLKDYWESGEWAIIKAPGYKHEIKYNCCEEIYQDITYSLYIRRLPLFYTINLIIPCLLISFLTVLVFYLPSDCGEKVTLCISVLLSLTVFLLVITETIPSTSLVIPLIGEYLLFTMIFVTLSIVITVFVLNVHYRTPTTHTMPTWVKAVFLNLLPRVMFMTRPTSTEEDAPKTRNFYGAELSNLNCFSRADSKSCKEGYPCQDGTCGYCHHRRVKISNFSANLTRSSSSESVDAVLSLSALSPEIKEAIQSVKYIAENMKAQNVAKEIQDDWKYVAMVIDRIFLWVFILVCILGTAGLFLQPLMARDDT
mouse α6/α3β4 nAChR, sequence (Q9R0W9 whole entry, looked up): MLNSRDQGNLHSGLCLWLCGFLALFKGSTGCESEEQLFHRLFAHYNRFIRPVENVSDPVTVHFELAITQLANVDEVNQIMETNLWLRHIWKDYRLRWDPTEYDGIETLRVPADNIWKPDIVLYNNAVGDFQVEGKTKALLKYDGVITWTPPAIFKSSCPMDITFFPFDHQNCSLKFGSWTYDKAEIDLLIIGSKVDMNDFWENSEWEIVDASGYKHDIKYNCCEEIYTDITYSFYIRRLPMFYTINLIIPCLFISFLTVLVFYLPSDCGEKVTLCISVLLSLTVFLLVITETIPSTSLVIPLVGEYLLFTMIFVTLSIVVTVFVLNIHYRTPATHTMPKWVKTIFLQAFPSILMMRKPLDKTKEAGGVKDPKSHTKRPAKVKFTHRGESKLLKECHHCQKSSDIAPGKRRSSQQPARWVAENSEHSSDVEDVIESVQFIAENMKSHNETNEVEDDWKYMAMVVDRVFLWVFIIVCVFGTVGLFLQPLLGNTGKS

Take PNU-120596: in assay [1], the “calcium response to ACh alone or ACh+PNU in α7-expressing DRG neurons” value was “co-application of ACh and PNU uncovered a calcium response”. In assay [2], the “α7 modulation” value was “α7 positive allosteric modulator”.

Turning to `CC(C)C[C@@H]1NC(=O)[C@H](CCC(=O)O)NC(=O)[C@@H]2CCCN2C(=O)[C@H](Cc2c[nH]cn2)NC(=O)[C@H](CC(N)=O)NC(=O)[C@H](C(C)C)NC(=O)[C@H](CO)NC(=O)[C@@H]2CSSC[C@H](NC(=O)CNC(=O)[C@@H]3CCC(=O)N3)C(=O)N[C@@H](CSSC[C@@H](C(=O)N[C@@H](Cc3c[nH]c4ccccc34)C(=O)O)NC1=O)C(=O)N[C@@H](CO)C(=O)N[C@@H](Cc1c[nH]cn1)C(=O)N1CCC[C@H]1C(=O)N[C@@H](C)C(=O)N2` [αCtx-AtIA] ([pGlu]GCCSHPACSVNHPELCW-OH; disulfide 3-9, 4-17), the “loss of potency on α6/α3β4 compared to αCtx-PeIA” value in assay [3] is ~ 5 fold.

Consider `CC(=O)OCC[N+](C)(C)C` [ACh, acetylcholine], for which, in assay [1], the “calcium response to ACh alone or ACh+PNU in α7-expressing DRG neurons” value is given as “did not cause calcium influx in these cells”. In addition, in assay [4], the “calcium response of DRG neurons to agonist” value is “a subset of mouse DRG neurons responds to serial application of 1 mM acetylcholine (ACh) with elevation of intracellular calcium”.

The values above are taken from PMC10971446 (Marine Drugs, 2024).
